Measured values reported in patent US9023811B2, “Method for treating a cardiovascular disease, hypercholesterolemia or hypertension or improving serum cholesterol levels by administering broccoli with a high level of glusosinolates” (Plant Bioscience Limited, priority 2009, dated 2015).
Read-outs that look alike come from different tables or passages of the source.

Experiments:
[1] = target: T1, recombinant human transforming growth factor beta 1 (TGFβ1) (Homo sapiens, UniProt P01137); test: Incubation of peptides with isothiocyanates, LC-MS/MS; type: binding; details: PBS pH 7.4 at 37° C., 0.5 to 24 hours
T1 construct: TGFβ1 was robustly identified in bands of 25 kDa corresponding to the active dimer; The N-terminal peptide […] was identified; purchased R&D Systems
T1 sequence (P01137 279-390 limits assumed): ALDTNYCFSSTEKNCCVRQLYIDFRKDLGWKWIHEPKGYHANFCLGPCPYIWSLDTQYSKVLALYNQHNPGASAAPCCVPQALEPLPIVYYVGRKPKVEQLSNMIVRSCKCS
Procedure: (§1) Incubations of SF or IB with bovine insulin (P01308, Sigma-Aldrich), recombinant human epidermal growth factor (EGF, P01133, R&D Systems, http://www.rndsystems.com/) and recombinant human transforming growth factor beta 1 (TGFβ1, P01137, R&D Systems) were performed in sodium phosphate-buffered saline solution (pH 7.4) or human blood plasma at 37° C. for 0.5-24 h. Plasma was pre-treated by ultrafiltration to remove high molecular weight proteins (Microcon Ultracel YM-30 filter, MWCO 30,000). Samples were either analyzed directly by LC-MS/MS or by LC-MS/MS analysis of tryptic digests of gel electrophoresis bands.
(§2) The LC system used was a Shimadzu series LOAD VP (Shimadzu). The column was an ACE 300 C18, 150×2.1 mm (5 μm particle size) used at 40° C. Mobile phase A was 0.1% formic acid in water, mobile phase B, 0.1% formic acid in acetonitrile and the flow rate was 0.25 ml/min. A linear gradient was used from 25% B to 35% B over 0 to 5 min, then a further gradient from 35% B to 99% B over 6 min followed by 99% B for 4 min. The column was re-equilibrated for a total of 3 min. The injection volume was between 5-20 μl. […] The peak-width was set on Q1 and Q3 at 1.0 Th (measured at half height) for all MS and MS/MS experiments. […]

bovine insulin = target: T2, bovine insulin (Bos taurus, UniProt P01317); test: as above; type: binding; details: PBS pH 7.4 at 37° C., 0.5 to 24 hours
T2 construct: m/z 325.2 corresponds to Phe-SF, the N-terminal amino acid of insulin B chain; m/z 235.0 corresponds to Gly-SF, the N-terminal amino acid of insulin A chain; purchased Sigma-Aldrich
T2 sequence (P01317 25-54 limits assumed): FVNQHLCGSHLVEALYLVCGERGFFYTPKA
T2 sequence (P01317 85-105 limits assumed): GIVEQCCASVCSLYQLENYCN
Procedure: as §1, §2

[2] = target: T3, recombinant human epidermal growth factor (EGF) (Homo sapiens, UniProt P01133); test: as above; type: binding; details: PBS pH 7.4 at 37° C., 0.5 to 24 hours
T3 construct: addition of SF to the N-terminal asparagines residue (m/z 309) of EGF; purchased R&D Systems
T3 sequence (P01133 971-1023 limits assumed): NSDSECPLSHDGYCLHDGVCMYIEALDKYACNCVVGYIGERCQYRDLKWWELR
Procedure: as §1, §2

[3] = system: TGFβ1/Smad mediated transcription
Procedure: Cells were seeded into complete growth medium in a six-well tissue culture dish for 24 h, after which the medium was replaced with low serum medium (0.5% FCS) containing one of three treatments: (1) TGFβ1 (to achieve a final concentration of 2 ng ml^−1) in PBS buffer, (2) TGFβ1^+10 mM DTT in PBS buffer (3) TGFβ1^+2 μM SF in PBS buffer. To simulate SF pharmacokinetics, all test samples were incubated at 37° C. for 30 minutes prior to dialysis, performed in PBS buffer for 4 hours using Slide-A-Lyzer Dialysis Cassettes MWCO 3.5K (PIERCE). Dialysis reduced SF concentration to 34 nM. As additional controls, cells were treated with PBS without TGFβ1 and PBS with SF (34 nM). The luciferase activity was determined 16 h following treatment using the Luciferase Reporter Gene assay (Roche Applied Science) in a Perkin Elmer Wallac Victor 2 1420 multilabel counter plate reader (Perkin Elmer). Briefly, cells were washed twice with PBS and lysed in cell lysis buffer supplied with the assay. Chemiluminescence was immediately quantified following the addition of luciferase assay substrate. Luciferase values were normalized to protein concentration quantified using the BCA assay (Sigma-Aldrich). The experiment was repeated four times, with three replicates of each treatment per experiment. Statistical analysis was performed using 1-way ANOVA with the statistical software, R [24].

[4] = system: EGF receptor phosphorylation in BPH cells; details: EGF pre-incubated with ITC, compared to EGF alone

Procedure for pAKT in PC-3 cells: BPH-1 or PC-3 cells were cultured in 10 cm cell culture dishes or 6-well culture plates until they reached 80% confluency and were lifter using TE buffer (10 mM Tris/HCl, 1 mM EDTA, pH8). After 24 h treatment with SF cells were washed three times with cold PBS and treated with RIPA buffer for 2 min on ice, followed by centrifugation at 13 000 g at 4° C. for 10 min and the supernatant collected for western blotting. Protein was separated on NuPage 10% polyacrylamide gels by electrophoresis and transferred to nitrocellulose membranes. Membranes were probed with primary antibodies obtained from Cell Signalling© at a dilution of 1:1000: Phospho-Akt (Ser^473) Rabbit mAb (#4060 L) and AKT (pan) Rabbit rnAb (#4685). GAPDH was used as a loading control for all blots. Proteins were visualised with SuperSignal West Chemiluminescence kit.

C[S+]([O-])CCCN=C=S (stereo not shown) [IB, iberin]
conjugate of peptide and ITC (TGFβ1) [1]: formation of a covalently bound conjugate
conjugate of peptide and ITC (insulin) (bovine insulin): formation of a covalently bound conjugate
conjugate of peptide and ITC (EGF) [2]: formation of a covalently bound conjugate

C[S+]([O-])CCCCN=C=S (stereo not shown) [SF, sulforaphane]
Smad-mediated transcription (luciferase activity) ([3]; TGFβ1 pre-incubated with SF (2 μM) for 30 minutes followed by dialysis, compared to TGFβ1 alone): increase in Smad-mediated transcription
Smad-mediated transcription (luciferase activity) ([3]; residual SF (34 nM) alone, without TGFβ1): did not result in enhanced transcription
pAKT expression (pAKT in PC-3 cells; PC-3 cells + FCS, 2 μM SF, one hour): suppresses pAKT
pAKT expression (pAKT in PC-3 cells; PC-3 cells + FCS, 10 μM SF): variable response
pAKT expression (pAKT in PC-3 cells; PC-3 cells in culture medium without FCS): no further inhibition
pAKT expression (pAKT in PC-3 cells; PC-3 cells, 0.5 μM SF (data not shown)): suppression
conjugate of peptide and ITC (TGFβ1) [1]: formation of a covalently bound conjugate
amount of phosphorylated EGF receptor [4]: reduces the amount of phosphorylated receptor
conjugate of peptide and ITC (insulin) (bovine insulin): formation of a covalently bound conjugate
conjugate of peptide and ITC (EGF) [2]: formation of a covalently bound conjugate
